Common to all, as to assay: NCI-60 cell line screen, 48 h
The test system of experiment [1] is A498 renal.
Experiment [2] has as its system SN12C renal.
Experiment [3] concerns 786-0 renal.
The subject of experiment [4] is HOP-92 NSCLC.
The test system of experiment [5] is NCI/ADR-RES ovarian.
The subject of experiment [6] is BT-549 breast.
For experiment [7], the system named is U251 CNS.
In experiment [8] the test system is SF-295 CNS.
Experiment [9] deals with MDA-MB-231 breast.
In experiment [10] the test system is SR leukemia.

From PubChem BioAssay (NCI) come the findings set out here.

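Assay format: 96-well plates, 48-hour exposure. GI50 = concentration required for 50% inhibition of growth. TGI denotes the concentration required for complete inhibition of growth.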

Take `NS(=O)(=O)c1ccc(N=Nc2ccc(O)c(C(=O)O)c2)cc1`: the TGI in experiment [1], in experiment [2], in [3], in [4], in experiment [5] and in [6] was more than 100 µM throughout. Further, the TGI in experiment [7], in experiment [8] and in [9] was more than 100 µM throughout.
As to `CCCCCCCCCCCCO[P+](=O)OCCCCCCCCCCCC`, the TGI in [1], in experiment [2], in [3], in [4], in experiment [5] and in experiment [6] was more than 100 µM in each case. In addition, the TGI in experiment [7], in experiment [8] and in [9] was more than 100 µM each time.
For the compound `CCCCC[C@H]1CCCCCCCCCC(=O)OC2C(O[C@@H]3OC(C)[C@H](OC(=O)[C@@H](C)CC)C(O[C@@H]4OC(C)[C@H](O)C(O)[C@@H]4O)[C@@H]3OC(=O)[C@H](C)CC)[C@H](OC3C(O)[C@@H](O)C(C)O[C@H]3O1)OC(CO)[C@H]2O` (stereo partly drawn), the TGI in experiment [2] was 31.3 µM; in experiment [3] it was 31.7 µM; in [4], 37.1 µM; in experiment [5] it was 36.9 µM; in [10] it was 34.7 µM; in experiment [7], 32.1 µM. For the same compound, the TGI was determined as 32.7 µM in [8] and 30.7 µM in experiment [9].
For `CC1C2(C)OCC(C#N)(C(=N)O2)C1(C#N)C#N` (stereo not drawn), the TGI in experiment [1] is more than 100 µM; in experiment [2], 29.1 µM; in [3], 55.3 µM; in [4] it was 48.9 µM; in experiment [5], more than 100 µM; in experiment [6], more than 100 µM. For the same compound, the TGI in experiment [7] was 40.4 µM; in experiment [8] it was more than 100 µM; in experiment [9], 42.8 µM.
In the case of `CC(C)=NOC(=O)Nc1cccc2c1OCO2`, the TGI in experiment [1], in experiment [2], in experiment [3], in [4], in [5] and in experiment [7] was more than 100 µM in each case. In addition, the TGI in experiment [8] and in experiment [9] was more than 100 µM each time.
As for `CC(C)c1ccc(/C=C2\CSCC3=C2N=C2SCC(=O)N2C3c2ccc(C(C)C)cc2)cc1` (stereo not drawn), the TGI in [2], in experiment [3], in experiment [4], in experiment [5], in [10] and in experiment [7] was more than 100 µM in each case. The TGI in experiment [8] and in experiment [9] was more than 100 µM each time.
In the case of `O=C(Cc1ccccc1)NN1C(=O)/C(=C\c2ccccc2O)SC1=Nc1ccccc1`, the TGI in [1], in experiment [2], in [3], in experiment [4], in experiment [5] and in [6] was more than 100 µM each time. In addition, the TGI in experiment [7], in [8] and in [9] was more than 100 µM each time.
Take `CCCCCCCCCCCCOP(=O)(O)OP(=O)(O)OCC1OC(n2cc(C)c(=O)[nH]c2=O)CC1O` (stereo not drawn): the TGI in experiment [1], in experiment [2], in experiment [3], in experiment [4], in [5] and in experiment [6] was more than 100 µM each time. Also, the TGI in experiment [7], in experiment [8] and in experiment [9] was more than 100 µM each time.
Consider `Cc1cc(=O)oc2c(CNC(CC(C)C)C(=O)O)c(O)ccc12` (stereo not drawn), for which the TGI in [2], in experiment [3], in experiment [4], in experiment [5], in [10] and in experiment [7] was more than 100 µM in each case. The TGI in experiment [8] and in [9] was more than 100 µM in each case.
As for `Cc1ccc(S[C@@H](C)[C@@](O)(C(N)=O)c2ccccc2)cc1`, the TGI is more than 100 µM in experiment [2]; more than 100 µM in experiment [3]; 37.6 µM in [4]; 49.5 µM in experiment [5]; more than 100 µM in experiment [6]; more than 100 µM in [7]. In addition, the TGI in experiment [8] was 41.9 µM; in [9], 46 µM.
`CCOC(=O)C(C(=O)COC(C)(C)C)[C@@H]1C=C[C@H](OC(C)=O)C1` (stereo partly drawn): the TGI in experiment [1], in experiment [2], in experiment [3], in [5], in experiment [6] and in experiment [7] was more than 100 µM throughout. For the same compound, the TGI in [8] and in [9] was more than 100 µM in each case.
As for `FC(F)(F)c1ccc2nc(Sc3ccc4ccccc4c3)cnc2c1`, the TGI in [1], in [2], in [3], in experiment [4], in experiment [5] and in experiment [6] was more than 100 µM throughout. Further, the TGI in experiment [7], in experiment [8] and in [9] was more than 100 µM throughout.
Consider `C=C1CC2[C@H](C)C(=O)CCC2(C)C2=C1C1CCC(C(C)CCC(=C)C(C)C(=O)O)C1(C)CC2=O` (stereo partly drawn), for which the TGI in [1] is more than 100 µM; in experiment [2] it was more than 100 µM; in experiment [3] it was 40.1 µM; in experiment [4] it was 85.2 µM; in [5] it was more than 100 µM; in experiment [6] it was more than 100 µM. In addition, the TGI in experiment [7], in [8] and in experiment [9] was more than 100 µM throughout.
For the compound `CC(=O)c1sc2[n+](c1C)C(=O)/C(=C\c1ccccc1Cl)S2`, the TGI is 74.3 µM in experiment [1]; 78.8 µM in experiment [2]; 38.2 µM in experiment [3]; more than 100 µM in experiment [4]; 61.6 µM in experiment [5]; 52.5 µM in [10]. Further, the TGI in experiment [7] turned out to be 30.5 µM; in experiment [8], 33 µM; in [9], 52.9 µM.
On to `Cc1ccc(S(=O)(=O)Nn2c(O)c(C#N)c(-c3ccc([N+](=O)[O-])cc3)c(C#N)c2=O)cc1`, for which the TGI in [1], in experiment [2], in experiment [3], in [4], in experiment [5] and in experiment [6] was more than 100 µM each time. The TGI in [7], in [8] and in [9] was more than 100 µM each time.
With `O=c1cc(N2CCCC2)[nH]c(=O)n1-c1ccc(Cl)cc1`, the TGI in experiment [1], in experiment [2], in experiment [3], in experiment [4], in [5] and in experiment [6] was more than 100 µM throughout. Besides, the TGI in [7], in [8] and in experiment [9] was more than 100 µM each time.
Take `CC(C)(C)C1=C(Br)C(OC(=O)C(F)(F)F)(C(C)(C)C)OP1(=O)c1ccccc1` (stereo not drawn): the TGI in experiment [1] was more than 100 µM; in experiment [2], more than 100 µM; in [3], more than 100 µM; in experiment [4], 92.5 µM; in [5], more than 100 µM; in experiment [7], more than 100 µM. In experiment [8], this compound came in with a TGI of more than 100 µM.
Turning to `CCn1c2ccccc2c2cc(Nc3cc(C)[nH]c(=O)n3)ccc21`, the TGI in experiment [1], in experiment [2], in [3], in experiment [4], in experiment [5] and in [7] was more than 100 µM in each case. The TGI in experiment [8] and in [9] was more than 100 µM in each case.
Take `CC/C(=C\c1ccc(OC)cc1)c1ccc(OC)cc1`: the TGI in experiment [1], in [2], in experiment [3], in [4], in experiment [5] and in experiment [6] was more than 100 µM throughout. Further, the TGI in experiment [7], in experiment [8] and in experiment [9] was more than 100 µM each time.
For the compound `COC(=O)c1ccc(NCC2=C(Br)C(=O)C=CC2=O)cc1Cl`, the TGI was more than 100 µM in experiment [1]; 30.1 µM in experiment [2]; 26.1 µM in experiment [3]; 29.1 µM in experiment [4]; 75.4 µM in experiment [5]; 26.1 µM in experiment [6]. The TGI in [7] was 43.6 µM; in [8], more than 100 µM; in experiment [9], 34.8 µM.
Regarding `CC(C)C(NC(=O)C(Cc1ccccc1)NC(=O)[C@H]1CCC[C@H]1NC(=O)C(Cc1ccc(OC(C)(C)C)cc1)NC(=O)OC(C)(C)C)C(N)=O` (stereo partly drawn), the TGI is 27.6 µM in [1]; 35.2 µM in [2]; more than 100 µM in experiment [3]; 48.9 µM in experiment [4]; more than 100 µM in [5]; more than 100 µM in experiment [10]. Besides, the TGI in [7] was determined as 28.3 µM; in [8], 34.5 µM; in [9], 49.5 µM.
Consider `Cc1ccccc1NC(=O)Cc1csc(N=Nc2c(O)[nH]c3ccccc23)n1`, for which the TGI in [1] was more than 100 µM; in [2], more than 100 µM; in [3] it was more than 100 µM; in [4] it was more than 100 µM; in experiment [5] it was more than 100 µM; in [7] it was more than 1 µM. In addition, the TGI in [8] is 38 µM; in experiment [9], more than 100 µM.
In the case of `CN1CCC2(CC1)C(=NC1CCCCC1)NC(=O)N2c1ccccc1`, the TGI in experiment [1], in experiment [2], in experiment [3], in [4], in experiment [5] and in [10] was more than 100 µM each time. The TGI in [7], in experiment [8] and in experiment [9] was more than 100 µM in each case.
Take `C=C(C)[C@@H]1CC[C@]2(CO)CC[C@]3(C)[C@H](CC[C@@H]4[C@@]5(C)CC[C@H](NCO)C(C)(C)[C@@H]5CC[C@]43C)[C@@H]12`: the GI50 in [1] is 0.802 µM; in experiment [2], 0.79 µM; in experiment [4], 0.783 µM; in experiment [5] it was 0.894 µM; in experiment [6], 0.792 µM; in experiment [8] it was 0.873 µM. For the same compound, the GI50 in [9] is 0.995 µM. For the same compound, the TGI in [1] turned out to be 1.69 µM; in experiment [2], 1.5 µM; in [4], 1.6 µM; in experiment [5], 1.72 µM; in [6], 1.53 µM; in [8], 1.58 µM. Besides, in experiment [9], the TGI is 1.75 µM.
For the compound `CCOC(=O)C(C)N1C(=O)c2ccccc2S1(=O)=O` (stereo not drawn), in [1], the GI50 is 29.1 µM. Further, the TGI in [1], in experiment [2], in experiment [4], in [5], in experiment [7] and in experiment [8] was more than 100 µM in each case.
For `S=c1nc[nH]c2c1ncn2C1CCCO1` (stereo not drawn), the TGI in experiment [1], in [2], in experiment [3], in [4], in experiment [7] and in experiment [8] was more than 100 µM each time.
With `O=C(O)c1ccc(N/C(=C(/C(Cl)=C(Cl)Cl)[N+](=O)[O-])n2nnc3ccccc32)cc1`, the TGI in [1], in [2], in experiment [3], in [5], in [6] and in experiment [7] was more than 100 µM throughout. The TGI in [8] and in experiment [9] was more than 100 µM in each case.
For `C=CC[C@H](N=C(SC)SC)C(=O)N1C(=O)N(C)[C@@H](C)[C@H]1c1ccccc1`, the TGI in [1] was more than 100 µM; in experiment [2] it was more than 100 µM; in experiment [3], more than 100 µM; in [4], 68.3 µM; in experiment [5], more than 100 µM; in experiment [6], more than 100 µM. Besides, the TGI in [7], in experiment [8] and in experiment [9] was more than 100 µM each time.
For `CN(C)CN(C)c1nc(N(C)C)nc(N(C)CN(C)C)n1`, the TGI is more than 100 µM in experiment [1]; more than 100 µM in experiment [2]; more than 100 µM in experiment [3]; more than 100 µM in [4]; 58.3 µM in [10]; more than 100 µM in [7]. For the same compound, the TGI in [8] is more than 100 µM.
